According to the supplement of paper PMC4862054:

Experiments:
Details in all cases: incubation time: 72 h
HDQ-P1 [1] = experiment: normalised response (% of control), CellTox Green; higher = less cell death (100 = DMSO, 0 = benzethonium chloride kill control)
Summary of the method: (§1)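 Plates were normalised with 0.1 % DMSO as 100 and a positive kill control as 0. Breast cancer cell lines in 20 µl suspension had been seeded into 384-well plates with compound at 5 concentrations in 10-fold steps over a compound-specific 10,000-fold range, incubated 72 h, and read for CellTox Green fluorescence (485/520 nm) followed by CellTiter-Glo luminescence. Each value is the normalised signal at a single concentration.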

HCC1599 [2] = experiment: as above
Summary of the method: as §1

BT-549 [3] = experiment: as above
Summary of the method: as §1

MFM-223 [4] = experiment: as above
Summary of the method: as §1

CAL-85-1 [5] = experiment: as above
Summary of the method: as §1

MDA-MB-468 [6] = experiment: as above
Summary of the method: as §1

DU-4475 [7] = experiment: as above
Summary of the method: as §1

MCF-10A [8] = experiment: as above
Summary of the method: as §1

MDA-MB-231 [9] = experiment: as above
Summary of the method: as §1

CAL-120 [10] = experiment: as above
Summary of the method: as §1

CAL-51 [11] = experiment: as above
Summary of the method: as §1

BT-474 [12] = experiment: as above
Summary of the method: as §1

HCC1937 [13] = experiment: as above
Summary of the method: as §1

Hs578T [14] = experiment: as above
Summary of the method: as §1

MDA-MB-436 [15] = experiment: as above
Summary of the method: as §1

MDA-MB-453 [16] = experiment: as above
Summary of the method: as §1

HCC1143 [17] = experiment: as above
Summary of the method: as §1

CAL-148 [18] = experiment: as above
Summary of the method: as §1

HDQ-P1 [19] = experiment: normalised response (% of control), CellTiter-Glo; higher = more viable cells (100 = DMSO, 0 = benzethonium chloride kill control)
Summary of the method: as §1

HCC1599 [20] = experiment: as above
Summary of the method: as §1

BT-549 [21] = experiment: as above
Summary of the method: as §1

MFM-223 [22] = experiment: as above
Summary of the method: as §1

SK-BR-3 = experiment: as above
Summary of the method: as §1

CAL-85-1 [23] = experiment: as above
Summary of the method: as §1

MDA-MB-468 [24] = experiment: as above
Summary of the method: as §1

DU-4475 [25] = experiment: as above
Summary of the method: as §1

MCF-10A [26] = experiment: as above
Summary of the method: as §1

MDA-MB-231 [27] = experiment: as above
Summary of the method: as §1

CAL-120 [28] = experiment: as above
Summary of the method: as §1

CAL-51 [29] = experiment: as above
Summary of the method: as §1

BT-474 [30] = experiment: as above
Summary of the method: as §1

HCC1937 [31] = experiment: as above
Summary of the method: as §1

Hs578T [32] = experiment: as above
Summary of the method: as §1

MDA-MB-436 [33] = experiment: as above
Summary of the method: as §1

MDA-MB-453 [34] = experiment: as above
Summary of the method: as §1

HCC1143 [35] = experiment: as above
Summary of the method: as §1

CAL-148 [36] = experiment: as above
Summary of the method: as §1

Structure (SMILES)	normalised response (HDQ-P1 [1]) [%]	normalised response (HCC1599 [2]) [%]	normalised response (BT-549 [3]) [%]	normalised response (MFM-223 [4]) [%]	normalised response (CAL-85-1 [5]) [%]	normalised response (MDA-MB-468 [6]) [%]	normalised response (DU-4475 [7]) [%]	normalised response (MCF-10A [8]) [%]	normalised response (MDA-MB-231 [9]) [%]	normalised response (CAL-120 [10]) [%]	normalised response (CAL-51 [11]) [%]	normalised response (BT-474 [12]) [%]	normalised response (HCC1937 [13]) [%]	normalised response (Hs578T [14]) [%]	normalised response (MDA-MB-436 [15]) [%]	normalised response (MDA-MB-453 [16]) [%]	normalised response (HCC1143 [17]) [%]	normalised response (CAL-148 [18]) [%]	normalised response (HDQ-P1 [19]) [%]	normalised response (HCC1599 [20]) [%]	normalised response (BT-549 [21]) [%]	normalised response (MFM-223 [22]) [%]	normalised response (SK-BR-3) [%]	normalised response (CAL-85-1 [23]) [%]	normalised response (MDA-MB-468 [24]) [%]	normalised response (DU-4475 [25]) [%]	normalised response (MCF-10A [26]) [%]	normalised response (MDA-MB-231 [27]) [%]	normalised response (CAL-120 [28]) [%]	normalised response (CAL-51 [29]) [%]	normalised response (BT-474 [30]) [%]	normalised response (HCC1937 [31]) [%]	normalised response (Hs578T [32]) [%]	normalised response (MDA-MB-436 [33]) [%]	normalised response (MDA-MB-453 [34]) [%]	normalised response (HCC1143 [35]) [%]	normalised response (CAL-148 [36]) [%]
CCC/C=C/C=C/C(=O)O[C@H]1/C(=C/C(=O)OC)C[C@H]2C[C@H]([C@@H](C)O)OC(=O)C[C@H](O)C[C@@H]3C[C@H](OC(C)=O)C(C)(C)[C@](O)(C[C@@H]4C/C(=C/C(=O)OC)C[C@H](/C=C/C(C)(C)[C@]1(O)O2)O4)O3 [Bryostatin 1] (1 nM)	75.6	111	111	104	97.7	105	106	98.5	113	103	91	86.8	123	94	100	94.6	117	111	88.6	99.3	101	104	66.2	95.5	99.8	91.6	107	95.9	103	58	92.3	93	79.6	102	103	102	116
Cc1nc(Nc2ncc(C(=O)Nc3c(C)cccc3Cl)s2)cc(N2CCN(CCO)CC2)n1 [Dasatinib] (10 nM)	96.7	97.7	111	98.9	102	107	110	58.3	84.2	100	86.6	102	93.1	84.7	98	106	56.7	93.9	74.8	94.3	97.2	95	101	95.7	92.2	99.4	71.5	70.6	93.7	82	74.5	90.5	94.3	97.1	99.5	90.2	99.2
C[C@]12O[C@H](C[C@]1(O)CO)n1c3ccccc3c3c4c(c5c6ccccc6n2c5c31)CNC4=O [Lestaurtinib] (10 nM)	104	90.6	100	103	96.2	60	94.2	91.2	97.3	97.4	98.4	99.3	103	108	78.8	101	50.3	87.7	102	96.9	109	97.2	82.4	102	78.7	98	83.7	101	92.2	103	98.8	94.3	90.2	93.8	81.1	105	107
c1cc(CN2CCCNCCNCCCNCC2)ccc1CN1CCCNCCNCCCNCC1 [Plerixafor] (100 nM)	101	88.9	95.9	50.4	92.5	89.8	91.7	97.7	96.5	93.5	59.6	85.5	73.9	99.3	74.2	91.3	95.1	94.4	103	95.3	109	85.1	84.1	101	97.6	88.1	79.7	97.1	100	67.7	98.8	96.6	94.8	92	83	104	89.8
C[C@]12C=CC(=O)C=C1CC[C@@H]1[C@@H]2[C@@H](O)C[C@@]2(C)[C@H]1CC[C@]2(O)C(=O)CO [Prednisolone] (100 nM)	106	103	97.2	96.1	85.8	108	98.8	95.5	134	102	117	101	115	110	89.9	104	118	103	89.3	105	96	110	104	109	109	106	102	146	87.4	112	146	103	113	101	95	102	114
Cn1cc(CNCC2CCN(c3ncc(C(=O)NO)cn3)CC2)c2ccccc21 [Quisinostat] (10 nM)	109	104	95.5	103	77.9	57.7	97.8	96.7	101	91.4	126	93	114	88.8	92.3	97.7	114	95.8	75.4	89.8	88	103	70.1	72.5	91.2	83.9	78.8	103	86.2	99.2	106	85.2	85.7	87.2	56.9	75.8	87.6
CNC(=O)c1cc(Oc2ccc(NC(=O)Nc3ccc(Cl)c(C(F)(F)F)c3)cc2)ccn1 [Sorafenib] (10 nM)	107	91.9	108	101	102	97.8	98.4	66.7	108	96	106	99.3	66.5	95	103	106	95.9	103	107	108	108	106	103	102	115	101	108	105	112	95.9	97.8	95.2	98.8	105	100	102	107
CCN(CC)CCNC(=O)c1c(C)[nH]c(/C=C2\C(=O)Nc3ccc(F)cc32)c1C [Sunitinib] (10 nM)	111	114	92.9	98	89.5	141	98.4	109	104	99.3	108	100	66.9	82.4	103	107	57.7	105	99.3	96.3	108	105	101	103	102	104	98.5	107	109	98.8	101	99.2	103	96.9	97.4	108	106
